What is called IC90 is the point of the concentration-response curve where the effect stands at 90%. The low end stands for an effect from little substance, the high end for a need for much substance.

The test system of the assay is HIV (3B) or HIV (RF). In words: HIV yield reduction cell assay (plaque assay, MT-2 cells). It is filed as cell-based. The conditions noted are these: Human immunodeficiency virus 1, MT2, 72 h, 3 days. As to the method:
HIV YIELD REDUCTION CELL ASSAY
The following procedure is additionally described in Smallheer et al. Antiviral Chemistry and Chemotherapy 1993, 4(1), 27.
MT-2, a human T-cell line, was cultured in RPMI medium supplemented with 5% (v/v) heat inactivated fetal calf serum (FCS), 2 mM L-glutamine and 50 μg/mL gentamycin (later two compounds available from Gibco) Human immunodeficiency virus strains, HIV (3B) and HIV (RF) were propagated in H-9 cells in RPMI with 5% FCS. Poly-L-lysine (Sigma) coated cell culture plates were prepared according to the method of Harada et al. Science 1985, 229 563. MTT, (3-(4,5-dimethyl-thiazol-2-yl)-2,5-diphenyltetrazolium bromide), was obtained from Sigma.
Method: Test compounds were dissolved in dimethylsulfoxide to 5 mg/mL and serially diluted into RPMI medium to ten times the desired final concentration. […]
The virus titers of the progeny virus produced in the presence or absence of test compounds were determined by plaque assay. […] Clear plaques on a purple background were counted and the number of plaque forming units of virus was calculated for each sample. The antiviral activity of test compounds was determined by the percent reduction in the virus titer with respect to virus grown in the absence of inhibitor. The IC90 values in TABLE 2 were determined using the assay conditions described above under HIV Yield Reduction Assay. […]

In the case of `O=P12O[C@H]([C@@H](O)[C@@H](Cc3ccccc3)N1Cc1ccc(CO)cc1)[C@@H](Cc1ccccc1)N2Cc1ccc(CO)cc1` [Example 5C, (3-endo,4-endo,6-exo)-2,7-Bis(4-(hydroxymethyl)phenylmethyl)-3,6-bis(phenylmethyl)-8-oxa-2,7-diaza-1-phosphabicyclo[3.2.1]octan-4-ol 1-oxide], the IC90 is below 10 µg/mL.

The record behind these values is patent US5543517A, “Substituted bicyclic phosphoramides and derivatives thereof” (The DuPont Merck Pharmaceutical Company, priority 1994, dated 1996).
